Test results taken from ChEMBL document CHEMBL1795333, “Extraction of tacit knowledge from large ADME data sets via pairwise analysis” (Bioorg Med Chem, 2011).

Experiment: Apparent intrinsic clearance in human liver microsomes
Format: ADME, Microsome

| SMILES | microsomal CLint |
| --- | --- |
| C[C@@H]1CCN(C(=O)CC#N)C[C@@H]1N(C)c1ncnc2[nH]ccc12 [TOFACITINIB] | 10 µL/min/mg |
| CC1CCN(C(=O)C2CCOC2)CC1N(C)c1ncnc2[nH]ccc12 (centres undefined) | 11 µL/min/mg |
| CC1CCN(C(=O)CC(F)(F)F)CC1N(C)c1ncnc2[nH]ccc12 (centres undefined) | 16 µL/min/mg |
| CC1CCN(C(=O)CS(C)(=O)=O)CC1N(C)c1ncnc2[nH]ccc12 (centres undefined) | 8 µL/min/mg |
